# Assay results taken from US20100068812A1, “METHOD FOR INCREASING TRANSFORMATION EFFICIENCY IN PLANTS, COMPRISING COCULTURE STEP FOR CULTURING PLANT TISSUE WITH COCULTURE MEDIUM CONTAINING 3, 6-DICHLORO-O-ANISIC ACID” (Japan Tobacco Inc., priority 2007, published 2010).
# How the values were obtained:
# [1] = system: Maize (variety: A188) immature embryos; assay: Effect of auxin type in coculture medium on Agrobacterium-mediated transformation efficiency (GUS-positive plants / inoculated immature embryos); format: cell-based; conditions: for transformation efficiency relative to control (2,4-D), in words / transformation efficiency: auxin 1.5 mg/l in coculture medium, Agrobacterium LBA4404 (pSB131); for transformation efficiency: coculture in the dark at 25° C. for 7 days, 33 to 35 immature embryos per test
# Excerpt: (§1) Transformation efficiency can be determined by any calculation method commonly used by those skilled in the art, for example, can be determined from a value calculated by dividing the number of transformed plants by the number of Agrobacterium-inoculated explants.
# (§2) FIG. 1 is a graph showing the effect of auxin type in a coculture medium on transformation efficiency in maize. 33 to 35 immature embryos were provided for each test. The vertical axis represents the transformation efficiency (calculated by dividing the number of GUS-positive plants obtained in each test by the number of inoculated immature embryos), while the horizontal axis represents the type of auxin contained in the coculture medium. The auxin concentration in the coculture medium was set to 1.5 mg/l for each test.
# Maize (variety: A188) immature embryos (1.0 to 1.5 mm in size) at 7 to 14 days after pollination were aseptically collected and washed once with LS-inf liquid medium (Non-patent Publication No. 11), followed by pretreatment (thermal treatment at 46° C. for 3 minutes and centrifugation at 15,000 rpm for 10 minutes) to increase gene transfer efficiency. In LS-inf liquid medium containing 100 μM acetosyringone, Agrobacterium strain LBA4404 (pSB131) (Non-patent Publication No. 11) was suspended at about 1.0×10^9 cfu/ml to prepare an inoculum. The thermally-treated and centrifuged immature embryos were mixed with the inoculum, vortexed for 30 seconds, and then allowed to stand for 5 minutes at room temperature. The Agrobacterium-inoculated immature embryos were placed, with their embryonic discs facing up, onto a coculture medium containing 2,4,5-T (2,4,5-trichlorophenoxyacetic acid), picloram (4-amino-3,5,6-trichloropicolinic acid), TIBA (2,3,5-triiodobenzoic acid) or dicamba at a concentration of 1.5 mg/l in IS-AS medium (Non-patent Publication No. 11; solidified with 8 g/l agarose) which had been prepared to exclude 2,4-D and contain 5 μM AgNO3 and 5 μM CuSO4. A control medium was prepared to contain 5 μM AgNO3 and 5 μM CuSO4 in LS-AS medium (solidified with 8 g/l agarose).
# The immature embryos cultured in the dark at 25° C. for 7 days were placed onto LSD1.5 medium (Non-patent Publication No. 11) containing 5 μM AgNO3, 5 mg/l phosphinothricin (PPT), 250 mg/l carbenicillin and 100 mg/l cefotaxime, and then cultured in the dark at 25° C. for 10 days. The immature embryos were transferred to the same medium, except that the PPT concentration was set to 10 mg/l, and cultured under the same conditions for 3 weeks. The grown calli were excised with a surgical knife, placed onto a fresh medium of the same composition, and cultured under the same conditions for 3 weeks. The grown calli were excised, placed onto LSZ medium (Non-patent Publication No. 11) containing 10 μM CuSO4 and 5 mg/l PPT, and cultured in the light at 25° C. for about 2 weeks. Along with determining the number of immature embryos which regenerated into whole plants, leaves of the regenerated plants were partially excised, immersed in 0.1 M phosphate buffer (pH 6.8) containing 0.1% Triton X-100 and allowed to stand at 37° C. for 1 hour. The phosphate buffer was removed and then replaced with another phosphate buffer containing 1.0 mM 5-bromo-4-chloro-3-indolyl-β-D-glucuronic acid (X-gluc) and 20% methanol. After incubation at 37° C. for 24 hours, GUS gene expression was examined.
# [2] = system: immature embryos (variety: A188); assay: Effect of dicamba and 2,4-D in coculture medium on transformation efficiency (drop inoculation); format: cell-based, Maize; conditions: for transformation efficiency: auxin 1.5 mg/l in coculture medium, Agrobacterium LBA4404 (U0009B) with hydroxyapatite, 25 to 26 immature embryos per test
# Excerpt: as §1
# as §2, with “FIG. 3” for “FIG. 1”, “in maize (drop inoculation). 25” for “in maize. 33”, “to 26” for “to 35”
# The vector U0009B shown in FIG. 2 and SEQ ID NO: 1 was constructed by adding necessary elements to a vector having pSB11 (Non-patent Publication No. 27) as a skeletal structure. An inoculum (1 ml) of Agrobacterium strain LBA4404 (U0009B) prepared in the same manner as shown in Example 1 was supplemented with about 80 mg of hydroxyapatite (Bio-Rad). […] A control medium was prepared to contain 5 μM AgNO3 and 5 μM CuSO4 in LS-AS medium (solidified with 8 g/l agarose). After shaking with a vortex mixer to ensure a uniformly dispersed state of hydroxyapatite in the inoculum, 5 μl of the inoculum was added dropwise onto the immature embryos. After the inoculum added dropwise was dried, the immature embryos were transferred to another site on the same medium. After the culture container was sealed, coculture was performed in the dark at 25° C. for 7 days. The cocultured immature embryos were cultured in the same manner as shown in Example 1 to obtain regenerated plants, along with examining GUS gene expression in leaves of the regenerated plants.
# [3] = system: maize immature embryos; conditions: 15 μM dicamba vs 4.5 μM 2,4-D; cited from earlier work
# [4] = system: maize; conditions: 15 μM dicamba vs 6.75 μM 2,4-D; media also differ in other components (silver nitrate); cited from earlier work
smiles,measurement,setting,value
"Nc1c(Cl)c(Cl)nc(C(=O)O)c1Cl [picloram, 4-amino-3,5,6-trichloropicolinic acid]","transformation efficiency relative to control (2,4-D), in words",[1],lower than that of the control
"O=C(O)COc1cc(Cl)c(Cl)cc1Cl [2,4,5-T, 2,4,5-trichlorophenoxyacetic acid]","transformation efficiency relative to control (2,4-D), in words",[1],lower than that of the control
"COc1c(Cl)ccc(Cl)c1C(=O)O [dicamba, 3,6-dichloro-o-anisic acid]",transformation efficiency,[1],27.3%
same,"increase in the transformation efficiency compared to the conventional method using 2,4-D","[1]; dicamba 1.5 mg/l in coculture medium, 27.3/20.6",1.33 fold
same,transformation efficiency,[2],28.0%
same,"increase in the transformation efficiency compared to the conventional method using 2,4-D","[2]; dicamba 1.5 mg/l, 28.0/11.5",2.43 fold
same,"formation rate of calli having regeneration ability, compared to 2,4-D",[3],increased
same,"transformation efficiency, dicamba medium vs 2,4-D medium",[4],higher
"O=C(O)COc1ccc(Cl)cc1Cl [2,4-D, 2,4-dichlorophenoxyacetic acid]",transformation efficiency,[1],20.6%
same,transformation efficiency,[2],11.5%
"O=C(O)c1cc(I)cc(I)c1I [TIBA, 2,3,5-triiodobenzoic acid]","transformation efficiency relative to control (2,4-D), in words",[1],produced no transformed plant
